Assay results published in patent US10005769B2, “2,3-dihydrobenzofuran-5YL compounds as DYRK kinase inhibitors” (4SC DISCOVERY GMBH, priority 2013, dated 2018).

Key:
DYRK1B = DYRK1B (Homo sapiens (Human), UniProt Q9Y463); assay: DYRK1B Kinase Assay (33P ATP, DYRKtide substrate, Reaction Biology Corp.); type: biochemical; settings: 0.3 nM DYRK1B, 20 μM DYRKtide, 10 μM ATP, 25° C., 120 min
Description: The assay was carried out by Reaction Biology Corp., […], Pa., USA according to specifications by Reaction Biology Corp., as detailed herein below and further described in Anastassiadis et al., Nature Biotechnology, 29 (2011) 1039-1045. The substrate DYRKtide (synthetic peptide RRRFRPASPLRGPPK) was dissolved in freshly prepared Base Reaction Buffer (20 mM Hepes (pH 7.5), 10 mM MgCl2, 1 mM EGTA, 0.02% Brij35, 0.02 mg/ml BSA, 0.1 mM Na3VO4, 2 mM DTT, 1% DMSO) at a concentration of 20 μM. DYRK1B was added to the substrate solution in a concentration of 0.3 nM and gently mixed. Dilution series of the compounds according to the present invention in DMSO were prepared. Each dilution was added to a batch of the above reaction mix, followed 20 min later by addition of a mixture of ATP and ^33P ATP (specific activity 0.01 μCi/μl final) to a final concentration of 10 μM. Reactions were carried out at 25° C. for 120 min, followed by spotting the reactions onto P81 ion exchange filter paper. Unbound phosphate was removed by extensive washing of the filters in 0.75% phosphoric acid. […] IC50 values and curve fits were obtained using Prism (Graph Pad Software). DYRK1B used in the above assays are further described in the below table: [table] Exemplary compound dilution series, final concentrations of compound in the assay vessel; the individual concentrations and the range of concentrations covered by the dilution series may differ for each compound, as long as enough data points are obtained to determine the compound's IC50: DYRK 1[…].

[1] = test system: Hedgehog signaling pathway (Gli Reporter - NIH3T3 cell line); assay: Hedgehog Reporter Assay (Gli-Reporter, luciferase, mSHH stimulated); type: cell-based, murine; settings: Mus musculus; Gli Reporter NIH3T3 cells, 1 μg/ml mSHH, 24 h
Description: In order to investigate the potency of test compounds to inhibit the Hedgehog signaling pathway, a Gli-Reporter assay was performed. The “Gli Reporter-NIH3T3” cell line contains the firefly luciferase gene under the control of Gli responsive elements stably integrated into murine NIH3T3 cells (cells purchased from AMS Biotechnology ltd., 184 Milton Park, Abingdon OX14 4SE, U.K.). The luciferase expression correlates with activation of the hedgehog signaling pathway. This cell line is validated for its response to stimulation with murine Sonic Hedgehog and to treatment with inhibitors of the hedgehog signaling pathway. A multiplexed viability assay was used to discriminate inhibition on the pathway activity from cell toxicity. Growth Medium: DMEM (Dulbecco's Modified Eagle Medium); 10% Fetal Calf Serum; 1% Penicillin/Streptomycin; 500 μg/ml Geneticin (G418 Stock 50 mg/ml). Assay Medium: Opti-MEM® Reduced Serum Medium; 0.5% Calf Serum; 1% non-essential amino acids; 1 mM Na-pyruvate; 10 mM HEPES; 1% Penicillin/Streptomycin. 25,000 cells per well were seeded into a white 96 well plate in 100 μl growth medium and incubated over night at 37° C. and 5% CO2. After removing the supernatant the test compounds and controls were added in different concentrations in a final volume of 45 μl and incubated for 1 h at 37° C. and 5% CO2. For the stimulation of the Hedgehog pathway 5 μl of 10 μg/ml concentrated murine SHH (or mSHH; murine sonic hedgehog protein) was added to the cells. A final concentration of 1 μg/ml mSHH and 0.1% DMSO was reached per well. After incubation for 24 h at 37° C. the cells were investigated for viability and reporter activity. Viability: For the determination of the viability of the treated cells the CellTiter-FluorTM Kit from Promega comprising the fluorogenic, cell-permeant peptide substrate ([…]-aminofluorocoumarin GF-AFC was used. Roughly, only proteases of viable cells are able to cleave the GF-AFC. By this cleavage the fluorescent AFC is set free and can be detected in a fluorescence reader. For this assay 10 μl of GF-AFC substrate (CellTiter-FluorTM, Promega #G6082) was diluted in 2 ml assay buffer from the CellTiter-FluorTM Kit and 10 μl of this dilution was added per well to the cells and incubated for 30 min at 37° C. The fluorescence was measured with an excitation of 380-400 nm and an emission of 505 nm. Reporter activity: The firefly luciferase reporter activity was detected with the ONE-GloTM Luciferase Assay System from Promega. For this assay 50 μl ONE-Glo luciferase reagent (Promega #E6120, contains cell lysis buffer and luciferin) was added to each well and incubated at room temperature for 5 min. Luminescence was detected in a plate reader and served as a measure for reporter activity.

Chain of DYRK1B (Q9Y463 whole entry): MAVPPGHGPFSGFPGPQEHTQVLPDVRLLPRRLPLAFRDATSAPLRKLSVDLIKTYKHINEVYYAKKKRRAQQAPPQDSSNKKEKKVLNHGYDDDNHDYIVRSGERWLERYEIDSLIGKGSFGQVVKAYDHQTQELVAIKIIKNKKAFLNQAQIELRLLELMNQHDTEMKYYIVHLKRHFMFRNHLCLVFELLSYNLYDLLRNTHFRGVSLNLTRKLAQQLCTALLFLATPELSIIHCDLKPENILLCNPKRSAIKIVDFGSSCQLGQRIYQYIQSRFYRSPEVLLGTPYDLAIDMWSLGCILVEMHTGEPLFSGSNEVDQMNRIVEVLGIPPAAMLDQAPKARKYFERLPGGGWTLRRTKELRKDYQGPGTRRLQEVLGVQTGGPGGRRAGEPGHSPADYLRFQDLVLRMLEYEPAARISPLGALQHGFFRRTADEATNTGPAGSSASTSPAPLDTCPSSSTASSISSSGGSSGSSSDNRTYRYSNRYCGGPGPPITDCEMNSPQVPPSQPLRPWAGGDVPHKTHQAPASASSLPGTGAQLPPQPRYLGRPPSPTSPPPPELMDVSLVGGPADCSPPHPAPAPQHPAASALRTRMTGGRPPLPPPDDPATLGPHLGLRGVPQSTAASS

Row | Compound | IC50 (DYRK1B) | IC50 [1]
1 | CN1CCN(C(=O)c2nnc(NC(=O)c3csc(-c4ccc5c(c4)CCO5)n3)[nH]2)CC1 [Compound 27, 2-(2,3-Dihydrobenzofuran-5-yl)-N-(5-(4-methylpiperazine-1-carbonyl)-4H-1,2,4-triazol-3-yl)thiazole-4-carboxamide] | 49.8 nM | 3000 to 10000 nM
2 | O=C(Nc1nc(SCc2ccccc2)n[nH]1)c1csc(-c2ccc3c(c2)CCO3)n1 [Compound 32, N-(3-(Benzylthio)-1H-1,2,4-triazol-5-yl)-2-(2,3-dihydrobenzofuran-5-yl)thiazole-4-carboxamide] | 1350 nM | 3000 to 10000 nM
3 | O=C(Nc1nc2cc(C(=O)N3CCCC3)ccc2[nH]1)c1csc(-c2ccc3c(c2)CCO3)n1 [Compound 22, 2-(2,3-Dihydrobenzofuran-5-yl)-N-(5-(pyrrolidine-1-carbonyl)-1H-benzo[d]imidazol-2-yl)thiazole-4-carboxamide] | 0.852 nM | < 1000 nM
4 | O=C(Nc1nnc(C(=O)N2CCOCC2)[nH]1)c1csc(-c2ccc3c(c2)CCO3)n1 [Compound 26, 2-(2,3-Dihydrobenzofuran-5-yl)-N-(5-(morpholine-4-carbonyl)-4H-1,2,4-triazol-3-yl)thiazole-4-carboxamide] | 85 nM | 3000 to 10000 nM
5 | COCCNC(=O)c1ccc2[nH]c(NC(=O)c3csc(-c4ccc5c(c4)CCO5)n3)nc2c1 [Compound 23, 2-(2,3-Dihydrobenzofuran-5-yl)-N-(5-((2-methoxyethyl)carbamoyl)-1H-benzo[d]imidazol-2-yl)thiazole-4-carboxamide] | 0.699 nM | < 1000 nM
6 | CN(C)C(=O)c1ccc2[nH]c(NC(=O)c3csc(-c4ccc5c(c4)CCO5)n3)nc2c1 [Compound 7, 2-(2,3-Dihydrobenzofuran-5-yl)-N-(5-(dimethylcarbamoyl)-1H-benzo[d]imidazol-2-yl)thiazole-4-carboxamide] | 1.74 nM | < 1000 nM
7 | O=C(Nc1ncc[nH]1)c1csc(-c2ccc3c(c2)CCO3)n1 [Compound 11, 2-(2,3-Dihydrobenzofuran-5-yl)-N-(1H-imidazol-2-yl)thiazole-4-carboxamide] | 66.8 nM | 1000 to 3000 nM
8 | O=C(Nc1nc2cc(OC(F)(F)F)ccc2[nH]1)c1csc(-c2ccc3c(c2)CCO3)n1 [Compound 14, 2-(2,3-Dihydrobenzofuran-5-yl)-N-(6-(trifluoromethoxy)-1H-benzo[d]imidazol-2-yl)thiazole-4-carboxamide] | 29.4 nM | 1000 to 3000 nM
9 | O=C(NCC1CCCO1)c1ccc2[nH]c(NC(=O)c3csc(-c4ccc5c(c4)CCO5)n3)nc2c1 (stereo not drawn) [Compound 35, 2-(2,3-Dihydrobenzofuran-5-yl)-N-(5-(((tetrahydrofuran-2-yl)methyl)carbamoyl)-1H-benzo[d]imidazol-2-yl)thiazole-4-carboxamide] | < 0.5 nM | < 1000 nM
10 | O=C(Nc1nc(-c2ccco2)n[nH]1)c1csc(-c2ccc3c(c2)CCO3)n1 [Compound 46, 2-(2,3-Dihydrobenzofuran-5-yl)-N-(3-(furan-2-yl)-1H-1,2,4-triazol-5-yl)thiazole-4-carboxamide] | 15.3 nM | 3000 to 10000 nM
11 | O=C(Nc1nc(C(=O)NC2CC2)n[nH]1)c1csc(-c2ccc3c(c2)CCO3)n1 [Compound 25, N-(3-(Cyclopropylcarbamoyl)-1H-1,2,4-triazol-5-yl)-2-(2,3-dihydrobenzofuran-5-yl)thiazole-4-carboxamide] | 3.51 nM | 1000 to 3000 nM
12 | CCOC(=O)CSc1n[nH]c(NC(=O)c2csc(-c3ccc4c(c3)CCO4)n2)n1 [Compound 61, Ethyl 2-({5-[2-(2,3-dihydro-1-benzofuran-5-yl)-1,3-thiazole-4-amido]-1H-1,2,4-triazol-3-yl}sulfanyl)acetate] | 39.1 nM | –
13 | Cc1nsc(NC(=O)c2csc(-c3ccc4c(c3)CCO4)n2)n1 [Compound 69, 2-(2,3-Dihydro-1-benzofuran-5-yl)-N-(3-methyl-1,2,4-thiadiazol-5-yl)-1,3-thiazole-4-carboxamide] | 72.6 nM | –
14 | O=C(Nc1nc2ccc(C(=O)N3CCOCC3)cc2s1)c1csc(-c2ccc3c(c2)CCO3)n1 [Compound 51, 2-(2,3-Dihydro-1-benzofuran-5-yl)-N-[6-(morpholine-4-carbonyl)-1,3-benzothiazol-2-yl]-1,3-thiazole-4-carboxamide] | 9.17 nM | –
15 | CN1CCN(c2nnc(NC(=O)c3csc(-c4ccc5c(c4)CCO5)n3)s2)CC1 [Compound 57, 2-(2,3-Dihydro-1-benzofuran-5-yl)-N-[5-(4-methylpiperazin-1-yl)-1,3,4-thiadiazol-2-yl]-1,3-thiazole-4-carboxamide] | 26.4 nM | –
16 | O=C(Nc1nnc(-c2ccncc2)s1)c1csc(-c2ccc3c(c2)CCO3)n1 [Compound 59, 2-(2,3-Dihydro-1-benzofuran-5-yl)-N-[5-(pyridin-4-yl)-1,3,4-thiadiazol-2-yl]-1,3-thiazole-4-carboxamide] | 31.5 nM | –
17 | O=C(Nc1nnc(N2CCOCC2)s1)c1csc(-c2ccc3c(c2)CCO3)n1 [Compound 56, 2-(2,3-Dihydro-1-benzofuran-5-yl)-N-[5-(morpholin-4-yl)-1,3,4-thiadiazol-2-yl]-1,3-thiazole-4-carboxamide] | 21.7 nM | –
18 | CSc1nnc(NC(=O)c2csc(-c3ccc4c(c3)CCO4)n2)[nH]1 [Compound 21, 2-(2,3-Dihydrobenzofuran-5-yl)-N-(5-(methylthio)-4H-1,2,4-triazol-3-yl)thiazole-4-carboxamide] | 18.3 nM | –
19 | O=C(Nc1nc[nH]n1)c1csc(-c2ccc3c(c2)CCO3)n1 [Compound 63, 2-(2,3-Dihydro-1-benzofuran-5-yl)-N-(1H-1,2,4-triazol-3-yl)-1,3-thiazole-4-carboxamide] | 47.1 nM | –
20 | N#Cc1ccnc(NC(=O)c2csc(-c3ccc4c(c3)CCO4)n2)c1 [Compound 18, N-(4-Cyanopyridin-2-yl)-2-(2,3-dihydrobenzofuran-5-yl)thiazole-4-carboxamide] | 19.5 nM | –
21 | O=C(Nc1ncco1)c1csc(-c2ccc3c(c2)CCO3)n1 [Compound 79, 2-(2,3-Dihydro-1-benzofuran-5-yl)-N-(1,3-oxazol-2-yl)-1,3-thiazole-4-carboxamide] | 766 nM | –
22 | CC(C)CSc1n[nH]c(NC(=O)c2csc(-c3ccc4c(c3)CCO4)n2)n1 [Compound 34, 2-(2,3-Dihydrobenzofuran-5-yl)-N-(3-(isobutylthio)-1H-1,2,4-triazol-5-yl)thiazole-4-carboxamide] | 38.1 nM | –
23 | O=C(Nc1nc(SCCc2ccccc2)n[nH]1)c1csc(-c2ccc3c(c2)CCO3)n1 [Compound 37, 2-(2,3-Dihydrobenzofuran-5-yl)-N-(3-(phenethylthio)-1H-1,2,4-triazol-5-yl)thiazole-4-carboxamide] | 56 nM | –
24 | Cc1cc(NC(=O)c2csc(-c3ccc4c(c3)CCO4)n2)n[nH]1 [Compound 66, 2-(2,3-Dihydro-1-benzofuran-5-yl)-N-(5-methyl-1H-pyrazol-3-yl)-1,3-thiazole-4-carboxamide] | 50.5 nM | –
25 | CCOC(=O)c1c[nH]nc1NC(=O)c1csc(-c2ccc3c(c2)CCO3)n1 [Compound 55, Ethyl 3-[2-(2,3-dihydro-1-benzofuran-5-yl)-1,3-thiazole-4-amido]-1H-pyrazole-4-carboxylate] | 20.6 nM | –
